Laboratory results as given in US20240293304A1, “SULFONATE-FUNCTIONALIZED ALKYL POLYGLUCOSIDES AS SULFATE-FREE SURFACTANTS FOR TOOTHPASTE AND MOUTHWASH” (Colonial Chemical, Inc., priority 2021, published 2024).

Experiments:
[1] = system: gingival tissues (MatTek EpiGingival); assay: MatTek EpiGingival in vitro gingival irritation potential; type: cell-based; conditions: 2% SLS
From the text: Suga®Nate 160NC has been tested for its oral and gingival irritation potential in vitro (MatTek EpiOral™ & EpiGingival™). […] Taken together, the results reveal that Suga®Nate 160NC, even as a neat product, is less irritating to oral and gingival tissues than 2% SLS.

[2] = system: In vitro epidermal keratinocytes; type: cell-based

Compound	ET-50 [1] [min]	gingival irritation [1]	ET-50 [2] [min]	eye irritation classification [2]
CCCCCCCCCCCCOS(=O)(=O)[O-].[Na+] [SLS]	418.2	resulted in gingival irritation	–	–
sodium hydroxypropylsulfonate laurylglucoside crosspolymer [Poly Suga®Nate 160P NC]	–	–	≥ 256	non-irritating
sorbitan oleate decylglucoside crosspolymer [Poly Suga®Mulse D9]	–	–	–	non-irritating
